In patent US7511123B2, “Immuno-interactive fragments of the alpha-C subunit of inhibin” (Prince Henry's Institute of Medical Research, priority 1999, dated 2009):

How the values were obtained:
As#128 and/or As#41 = assay: Inhibin IFMA with pre-immunoabsorption of antisera by peptides; assay type: binding, sheep
Text: This IFMA is used in the measurement of inhibin in serum from women with ovarian cancer and is presented at this juncture as a reference to the following procedures. The IFMA is a sandwich antibody assay in 96-well microtiter plates. The capture antiserum is As #128 and the labeled antiserum As #41, both raised in sheep to the alpha subunit of human inhibin. Sheep As #128 was also boosted with human recombinant 30-kDa inhibin. The microtiter plates were coated with a caprylic acid IgG cut of antiserum #128. Inhibin standard and serum samples were added and incubated for 2 hours at room temperature. A biotinylated antiserum (As #41) which has been immunopurified by absorption to a column of bovine (alpha)C subunit fusion protein (as previously described, Robertson et al., 1997, supra) followed by elution with a glycine (pH 2.5) buffer, was added to bind to the antibody-bound inhibin (2-hour incubation at room temperature). Fluorescently (Eu) labeled-streptavidin that has a high affinity for biotin is added (30 minutes at room temperature) and the Eu-bound streptavidin is counted in a time-resolved fluorimeter. The Eu measured is proportional to the inhibin bound by the two antisera.
As another approach, the competition of combinations of peptides at a maximum saturating dose was assessed in the IFMA (FIGS. 7-9). […] This suppression in binding provides a measure of the contribution of that particular epitope to the assay.

As #128 = assay: RIA (Assay 2): competition with iodinated inhibin for As #128; assay type: binding, sheep
Outline: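 Graded doses of peptide or hr-inhibin standard competed with iodinated human recombinant 30 kDa inhibin tracer for the sheep antiserum at a set dilution, overnight at 4°C. Bound tracer was precipitated with goat anti-sheep IgG and gamma-counted. ED50 is the dose producing 50% loss of tracer binding.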

PO-6 = assay: Solid phase binding of Set 2 peptides to PO-6; design: species or system mouse; key: +++; ΦΦΦ strong effect; +, Φ weak effect; details: Set 2 biotinylated peptides 24 micromoles/L
Protocol: The binding of the 41 biotinylated peptides as set forth in Table 7 (peptide set 2) to the mouse monoclonal antibodies (PO# series) was assessed as follows:
a) Assay 1 (solid phase assay). The assay was undertaken as outlined in assay 1 of Example 2. Biotinylated peptides (24 micromoles/L) were initially bound to streptavidin-coated plates. Mab (at an appropriate dilution to give a detectable response, 1:1000, 1:10000 dilution of the culture medium) was then added and incubated for 1.5 hr. The amount of bound Mab was determined using horseradish peroxidase-bound anti-mouse IgG serum and enzyme activity detected at 450-630 nm using an ELISA plate reader.

PO-6 SPB (PO-6): +++
Substance: SGSG WSPSALRLLQRPPE [Peptide 5]
% suppression at 2ng inhibin (As#128 and/or As#41; As#41 label pre-absorbed with peptide, As#128 coating antibody: buffer): 67%
% suppression at 2ng inhibin (As#128 and/or As#41; As#128 coating antibody pre-absorbed with peptide(s), As#41 label: buffer): 55%
% suppression at 2ng inhibin (As#128 and/or As#41; both antisera pre-absorbed, label gives peptide(s) on As#128 coating first, then on As#41 label): 73%
As#128 ED50 (As #128; biotinylated peptides, 50% fall in binding of iodinated inhibin): 3.8 µM
ED50 values As#128 (As #128; non-biotinylated peptides, hr-inhibin A as standard): >10 µM
